The results in this text go back to the Kinase Knowledgebase extract (Sharma et al. 2016).

In test [1] the target is EGFR (human) (UniProt P00533). Conditions: A431.
In test [2] the target is EGFR (human) (UniProt P00533). Conditions: a431.

Sequence of EGFR (human) (P00533 whole entry, looked up): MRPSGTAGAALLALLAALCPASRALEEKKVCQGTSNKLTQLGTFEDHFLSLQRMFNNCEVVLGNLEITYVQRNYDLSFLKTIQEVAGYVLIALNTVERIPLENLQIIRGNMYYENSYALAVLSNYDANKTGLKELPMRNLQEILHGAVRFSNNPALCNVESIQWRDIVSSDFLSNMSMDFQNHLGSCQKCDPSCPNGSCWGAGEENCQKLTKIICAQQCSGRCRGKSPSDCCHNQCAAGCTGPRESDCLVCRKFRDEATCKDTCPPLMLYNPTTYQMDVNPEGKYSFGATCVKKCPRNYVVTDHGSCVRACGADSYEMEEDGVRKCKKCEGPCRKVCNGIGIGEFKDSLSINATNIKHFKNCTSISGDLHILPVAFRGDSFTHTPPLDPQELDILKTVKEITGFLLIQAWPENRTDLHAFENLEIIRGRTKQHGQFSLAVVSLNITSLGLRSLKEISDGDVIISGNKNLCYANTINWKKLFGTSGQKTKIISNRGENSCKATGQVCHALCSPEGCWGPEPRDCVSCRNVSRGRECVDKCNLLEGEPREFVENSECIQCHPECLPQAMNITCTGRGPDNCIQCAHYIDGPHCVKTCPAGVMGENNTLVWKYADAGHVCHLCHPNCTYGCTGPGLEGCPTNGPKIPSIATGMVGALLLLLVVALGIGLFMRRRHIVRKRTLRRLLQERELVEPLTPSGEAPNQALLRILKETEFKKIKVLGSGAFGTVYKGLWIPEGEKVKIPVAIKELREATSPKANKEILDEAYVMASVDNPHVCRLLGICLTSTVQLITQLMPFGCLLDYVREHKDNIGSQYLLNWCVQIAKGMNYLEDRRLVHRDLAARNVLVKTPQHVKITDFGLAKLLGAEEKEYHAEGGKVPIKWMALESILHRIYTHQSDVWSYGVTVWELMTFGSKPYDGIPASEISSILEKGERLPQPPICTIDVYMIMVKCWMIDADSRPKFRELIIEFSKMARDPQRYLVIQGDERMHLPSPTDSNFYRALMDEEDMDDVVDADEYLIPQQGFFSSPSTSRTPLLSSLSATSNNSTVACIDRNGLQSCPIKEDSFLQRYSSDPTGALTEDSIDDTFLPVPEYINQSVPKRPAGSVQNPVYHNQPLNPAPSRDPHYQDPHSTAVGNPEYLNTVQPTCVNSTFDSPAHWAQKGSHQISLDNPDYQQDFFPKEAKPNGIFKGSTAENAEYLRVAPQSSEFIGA

What is called IC50 is the concentration at which inhibition is half-maximal. A lower IC50 goes with greater potency. Regarding `COc1cc2nccc(Nc3ccc(N4C(=O)c5ccc(Cl)cc5C4=O)c(C)c3)c2cc1OC`, the results for the IC50 in test [1] and in test [2] were 50 µM and greater than 50 µM, respectively.
Taken in the same sequence, the figures for `c1ccc(COc2ccc(Oc3ncnc4ccccc34)cc2)cc1` were greater than 50 µM and greater than 50 µM.
Taken in the same sequence, the figures for `COc1cc2ncnc(Nc3ccc(Oc4ccccc4)cc3)c2cc1OC` were 8 µM and 30 µM.
In the same order, the values of `COc1ccc2c(Nc3ccc(OCc4ccccc4)cc3)ncnc2c1` are 65 µM and greater than 50 µM.
Take `c1ccc(COc2ccc(Nc3ccnc4ccccc34)cc2)cc1`: the IC50 in test [1] and in test [2] was greater than 50 µM in each case.
On to `COc1cc2ncnc(Nc3ccc(Nc4ccccc4)cc3)c2cc1OC`, for which the IC50 was 15 µM in test [1] and greater than 50 µM in test [2].
Taken in the same sequence, the figures for `Brc1ccc2ncnc(Nc3ccc(OCc4ccccc4)cc3)c2c1` were 10 µM and 29 µM.
In the same order, the values of `c1ccc(Oc2ccc(Nc3ccnc4ccccc34)cc2)cc1` are greater than 50 µM and 31 µM.
Taken in the same sequence, the figures for `COc1ccc2ncnc(Nc3ccc(OCc4ccccc4)cc3)c2c1` were 15 µM and 12 µM.
Regarding `O=[N+]([O-])c1ccc2ncnc(Nc3ccc(Oc4ccccc4)cc3)c2c1`, the IC50 in test [1] and in test [2] was greater than 50 µM each time.
On to `COc1cc2ncnc(Nc3ccc(OCc4ccccc4)cc3)c2cc1OC`, for which the IC50 in test [1] came out at 5 µM; in test [2], 50 µM.
On to `Clc1ccc2c(Nc3ccc(OCc4ccccc4)cc3)ncnc2c1`, for which the IC50 was greater than 30 µM in test [1] and 50 µM in test [2].
Taken in the same sequence, the figures for `COc1cccc2ncnc(Nc3ccc(OCc4ccccc4)cc3)c12` were 11 µM and 28 µM.
In the case of `c1csc(COc2ccc(Nc3ncnc4ccccc34)cc2)c1`, the IC50 in test [1] and in test [2] was greater than 50 µM throughout.
For the compound `Cc1cc2ncnc(Nc3ccc(OCc4ccccc4)cc3)c2cc1C`, the results for the IC50 in test [1] and in test [2] were greater than 30 µM and greater than 50 µM, respectively.
Regarding `COc1cc2ncnc(Nc3ccc(OCc4ccccc4)c(OC)c3)c2cc1OC`, the IC50 turned out to be 1.6 µM in test [1] and 6.9 µM in test [2].
Taken in the same sequence, the figures for `c1ccc(COc2cccc(Nc3ncnc4ccccc34)c2)cc1` were greater than 50 µM and 50 µM.
In the same order, the values of `COc1cc2nccc(Nc3ccc(OCc4ccccc4)cc3)c2cc1OC` are greater than 50 µM and greater than 50 µM.
